This passage reports IC50 and Ki results from patent US9593097B2, “Axl inhibitors” (Pfizer Inc., priority 2014, dated 2017).

In assay [1] the target is Axl phosphorylation in 293MSR-AxlWT6 cells (Homo sapiens (Human), UniProt P30530). The assay can be described thus: Cellular Axl phosphorylation ELISA assay (Gas6-stimulated 293MSR-AxlWT6 cells). Particulars: read-out: CELL AXL IC50. In kind it is cell-based. The essentials: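 Phospho-Axl was quantified by sandwich ELISA (anti-Axl capture, anti-phosphotyrosine-HRP detection, TMB, OD 450 nm). IC50 came from four-parameter concentration-response fits.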
Axl phosphorylation in 293MSR-AxlWT6 cells, sequence (P30530 26-894): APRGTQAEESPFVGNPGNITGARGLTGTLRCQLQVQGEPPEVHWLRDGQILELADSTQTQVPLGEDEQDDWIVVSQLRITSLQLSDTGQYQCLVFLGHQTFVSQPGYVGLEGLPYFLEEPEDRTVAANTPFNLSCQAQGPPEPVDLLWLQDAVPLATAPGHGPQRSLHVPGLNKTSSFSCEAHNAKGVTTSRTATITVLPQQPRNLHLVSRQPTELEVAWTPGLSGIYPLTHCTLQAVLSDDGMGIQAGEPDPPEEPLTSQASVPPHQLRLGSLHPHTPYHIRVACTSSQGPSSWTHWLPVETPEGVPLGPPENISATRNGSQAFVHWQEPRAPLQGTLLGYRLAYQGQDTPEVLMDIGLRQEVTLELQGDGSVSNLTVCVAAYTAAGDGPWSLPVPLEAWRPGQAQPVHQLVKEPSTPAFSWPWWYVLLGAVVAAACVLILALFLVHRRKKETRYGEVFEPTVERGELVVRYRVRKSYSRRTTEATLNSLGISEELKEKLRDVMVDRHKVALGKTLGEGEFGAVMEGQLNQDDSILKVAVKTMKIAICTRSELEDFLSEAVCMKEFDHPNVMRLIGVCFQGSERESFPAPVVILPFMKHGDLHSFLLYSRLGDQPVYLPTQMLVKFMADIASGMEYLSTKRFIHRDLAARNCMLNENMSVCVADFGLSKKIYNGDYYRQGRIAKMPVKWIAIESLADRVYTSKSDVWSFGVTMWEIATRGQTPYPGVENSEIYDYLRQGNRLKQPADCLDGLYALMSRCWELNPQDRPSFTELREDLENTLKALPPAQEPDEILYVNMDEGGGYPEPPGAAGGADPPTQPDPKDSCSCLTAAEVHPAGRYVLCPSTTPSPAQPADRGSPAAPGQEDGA
A general note: ELISA stands for enzyme-linked immunosorbent assay.

The target in assay [2] is Human wild-type receptor tyrosine kinase protein Axl (residues 505-811) (Homo sapiens (Human), UniProt P30530). Particulars: read-out: ENZYME AXL KI; Table 4B.
Human wild-type receptor tyrosine kinase protein Axl (residues 505-811), sequence (P30530 505-811): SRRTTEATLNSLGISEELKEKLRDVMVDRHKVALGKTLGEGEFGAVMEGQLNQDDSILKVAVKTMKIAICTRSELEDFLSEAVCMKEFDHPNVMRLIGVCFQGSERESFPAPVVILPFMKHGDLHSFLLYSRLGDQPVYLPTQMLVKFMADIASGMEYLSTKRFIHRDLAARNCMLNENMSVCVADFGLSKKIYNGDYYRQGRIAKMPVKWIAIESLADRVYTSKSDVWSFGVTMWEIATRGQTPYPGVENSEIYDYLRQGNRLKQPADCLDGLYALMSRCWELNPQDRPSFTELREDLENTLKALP

Read-outs that look alike come from different tables or passages of the source.

In the case of `COc1ccnc2[nH]cc(C3CCN(c4nc(OC[C@H]5C[C@H]5C#N)nc(C(=O)NC56CC(C5)C6)n4)CC3)c12` (single isomer, unassigned) [Example 504], in assay [1] (Table 4B), the IC50 came to 0.125 nM. The Ki in assay [2] is below 0.082 nM.
The corresponding values for `COC[C@@H](C)Oc1nc(C(=O)NC23CC(C2)C3)nc(N2CCC(c3c[nH]c4nccc(OC)c34)CC2)n1` (single isomer, unassigned) [Example 505] are 0.409 nM and below 0.082 nM.
On to `C[C@H](CO)NC(=O)c1cc(N2CCC(COc3cc(-c4cn(C)cn4)cnc3N)CC2)nc(OCC2CC2)n1` [Example 384, 6-[4-({[2-amino-5-(1-methyl-1H-imidazol-4-yl)pyridin-3-yl]oxy}methyl)piperidin-1-yl]-2-(cyclopropylmethoxy)-N-[(2R)-1-hydroxypropan-2-yl]pyrimidine-4-carboxamide], for which the IC50 in assay [1] (Table 4A) was found to be 0.36 nM.
Consider `COc1ccnc2[nH]cc(C3CCN(c4cc(C(=O)N[C@H](C)CO)nc(OCC5(C#N)CC5)n4)CC3)c12` [Example 387, 2-[(1-cyanocyclopropyl)methoxy]-N-[(2R)-1-hydroxypropan-2-yl]-6-[4-(4-methoxy-1H-pyrrolo[2,3-b]pyridin-3-yl)piperidin-1-yl]pyrimidine-4-carboxamide], for which the IC50 in assay [1] (Table 4B) was 0.152 nM. In addition, in assay [2], the Ki is below 0.018 nM.
Turning to `C[C@H](NC(=O)c1nc(OCC2CC2)nc(N2CCC(COc3cc(-c4cn(C)cn4)cnc3N)CC2)n1)C(F)(F)F` [Example 391, 4-[4-({[2-amino-5-(1-methyl-1H-imidazol-4-yl)pyridin-3-yl]oxy}methyl)piperidin-1-yl]-6-(cyclopropylmethoxy)-N-[(2S)-1,1,1-trifluoropropan-2-yl]-1,3,5-triazine-2-carboxamide], in assay [1] (Table 4B), the IC50 is 0.143 nM. Moreover, the Ki in assay [2] was below 0.013 nM.
As to `COc1ccnc2[nH]nc(C3CCN(c4cc(C(=O)N[C@H](C)CO)nc(OCc5ccccc5)n4)CC3)c12` [Example 415, 2-(benzyloxy)-N-[(2R)-1-hydroxypropan-2-yl]-6-[4-(4-methoxy-1H-pyrazolo[3,4-b]pyridin-3-yl)piperidin-1-yl]pyrimidine-4-carboxamide], the IC50 in assay [1] (Table 4B) came out at 0.052 nM. Besides, in assay [2], the Ki is below 0.013 nM.
The matching figures for `COc1ccnc2[nH]cc(C3CCN(c4cc(C(=O)N[C@H](C)CO)nc(OC[C@H]5CCCO5)n4)CC3)c12` [Example 459, N-[(2R)-1-hydroxypropan-2-yl]-6-[4-(4-methoxy-1H-pyrrolo[2,3-b]pyridin-3-yl)piperidin-1-yl]-2-[(2R)-tetrahydrofuran-2-ylmethoxy]pyrimidine-4-carboxamide]: 0.272 nM and below 0.013 nM.
For the compound `COc1ccnc2[nH]nc(C3CCN(c4nc(OC[C@H]5C[C@H]5C#N)nc(C(=O)NC5CCC5)n4)CC3)c12` [Example 501, 4-{[(1S,2R)-2-cyanocyclopropyl]methoxy}-N-cyclobutyl-6-[4-(4-methoxy-1H-pyrazolo[3,4-b]pyridin-3-yl)piperidin-1-yl]-1,3,5-triazine-2-carboxamide], the IC50 in assay [1] (Table 4B) is 1.07 nM. In addition, in assay [2], the Ki was below 0.412 nM.
The corresponding values for `COC[C@@H](C)Oc1nc(C(=O)NC2CCC2)nc(N2CCC(c3c[nH]c4nccc(OC)c34)CC2)n1` [Example 502, N-cyclobutyl-4-{[(2R)-1-methoxypropan-2-yl]oxy}-6-[4-(4-methoxy-1H-pyrrolo[2,3-b]pyridin-3-yl)piperidin-1-yl]-1,3,5-triazine-2-carboxamide] are 0.132 nM and below 0.082 nM.

Usually IC50 stands for the midpoint of a concentration-inhibition curve. For orientation: Ki means the equilibrium dissociation constant of an inhibitor or competing ligand from its target.
